Test results as given in patent US20260284046A1, “PYRIDAZINE COMPOUNDS FOR TREATMENT OF FIBROTIC DISEASES” (GEORG-AUGUST-UNIVERSITAET GOETTINGEN STIFTUNG OEFFENTLICHEN …, priority 2023, published 2026).

Assays:
[1] = tested on: human dermal fibroblasts HRO159N; assay: ELISA of secreted pro-collagen I alpha 1, human dermal fibroblasts HRO159N; type: cell-based; conditions: 48 h, 250 μg
Method: (§1) Compounds reconstitution and stock solution: Prior to treatment, DMSO was diluted in PMS until 0.1% DMSO was made. Each compound was solved in 0.1% DMSO (3: 2.5 mg/mL, 1: 2.5 mg/mL, 10: 1 mg/mL, 5: 1 mg/mL, 7: 0.6 mg/mL, 16: 1 mg/mL 17: 1 mg/mL, 44: 0.6 mg/mL, 36: 1 mg/mL.
(§2) Next the different stock solution with 150 μg and 250 μg of each compound per 1 ml culture solution was made by adding the 0.1% DMSO compound solution in the right amount to culture solution (DMEM with 10% FCS and 1% penicillin-streptomycin).
Three different cell lines were used for the experiments. GM637 is an immortalized cell line originated from human skin fibroblasts, bought in 2001, UKE1 and […] are cell lines originated from human dermal fibroblasts (dog ear) nurtured from patients, between 60 and 80 years old being completely anonymized at the clinic for dermatology, Rostock.
(§3) The cells lines were thawed and were cultured in Dulbecco's modified Eagle's medium (DMEM, Gibcon, USA) supplemented with 10% fetal bovine serum (FBS, Gibco, Germany) and 1% penicillin-streptomycin (PS, Gibco, USA) at 37° C. in a humidified atmosphere with 5% CO2 until a sufficient number of cells were culture in T75 culture bottles. After reaching a confluence of 80% to 90%, the cells were separated using trypsin and counted. Next 100.000 cells were planted in each well of a 6 well plate in replicates, washed and the DMEM solution with 150 μg and 250 μg/ml substance/DMEM and DMEM with no substance as control was added.
(§4) After 48 h and after 72 h 100 μl supernatant of each well was taken, labelled and frozen at −20° degree Celsius. Prior to perform ELISA the medium was depending on the cell line diluted 1:50 or 1:100 with PBS, otherwise the concentration of collagen fibers was too high to be measured.
The media containing the secretion of the different human dermal fibroblasts GM637, UKE1, and HRO159N were collected after 48 h and 72 h treatment. Secretion of pro-collagen 1 was assessed with human pro-collagen I alpha 1 DuoSet ELISA (R&D systems, USA) To prepare the Elisa plate, Human pro-Collagen I α capture antibody was diluted in ELISA plate-coating buffer at 4 μg/mL working concentration. 100 μl of diluted Capture antibody was added to 96-well microplates and incubated over night at room temperature. After three times washing with Wash Buffer, microplates were blocked by adding 300 μl of Reagent Diluent for 1 hour at room temperature. To proceed the ELISA Human pro-collagen I α1 Standards were diluted in Reagent Diluent (range between […]) and 100 μl of standards or conditioned mediums were added to designated wells. Microplates were incubated at room temperature for 2 hours. Human Pro-collagen I α1 Detection Antibody was prepared in Reagent Diluent at […] working concentration and 100 μl of diluted Detection Antibody was applied for 2 hours at room temperature after extensive washing. Then, working solution of Streptavidin-HRP with Reagent Diluent was prepared by diluting 1:40 and added into each well. After 20 minutes at room temperature incubation, microplates were washed and applied with 100 μl of Substrate Solution for 20 minutes followed by Stop Solution after washing. Finally, signals were measured at 450 nm absorbance by PHomo Microplate Reader (Autobio, China) The amount of pro-collagen 1 was quantified by extrapolating the signal into a linear range of a pro-collagen 1 standard curve. Screening compounds were typically tested at concentration of 150 and 250 μg/mL. The dose response data for each compound and the different cell lines were obtained by nonlinear regression analysis using Prism 9 software (GraphPad, La Jolla, USA).

[2] = tested on: human lung fibroblast MRCVI; assay: ELISA of secreted pro-collagen I alpha 1, human lung fibroblast MRCVI; type: cell-based; conditions: 48 h, 250 μg
Method: as §1, §2
As cell line MRCV1 was used, which is an immortalized cell line originated from human lung fibroblast, bought in 2001.
as §3, with “cell line was” for “cells lines were”, “and” for “and were”
as §4
The medium containing the secretion of the human lung fibroblast MRCVI was collected after 48 h and 72 h treatment. Secretion of pro-collagen 1 was assessed with human pro-collagen I alpha 1 DuoSet ELISA (R&D systems, USA) To prepare the Elisa plate, Human pro-Collagen I α capture antibody was diluted in ELISA plate-coating buffer at 4 μg/mL working concentration. 100 μl of diluted Capture antibody was added to 96-well microplates and incubated over night at room temperature. After three times washing with Wash Buffer, microplates were blocked by adding 300 μl of Reagent Diluent for 1 hour at room temperature. To proceed the ELISA Human pro-collagen I α1 Standards were diluted in Reagent Diluent (range between […]) and 100 μl of standards or conditioned mediums were added to designated wells. Microplates were incubated at room temperature for 2 hours. Human Pro-collagen I α1 Detection Antibody was prepared in Reagent Diluent at […] working concentration and 100 μl of diluted Detection Antibody was applied for 2 hours at room temperature after extensive washing. Then, working solution of Streptavidin-HRP with Reagent Diluent was prepared by diluting 1:40 and added into each well. After 20 minutes at room temperature incubation, microplates were washed and applied with 100 μl of Substrate Solution for 20 minutes followed by Stop Solution after washing. Finally, signals were measured at 450 nm absorbance by PHomo Microplate Reader (Autobio, China) The amount of pro-collagen 1 was quantified by extrapolating the signal into a linear range of a pro-collagen 1 standard curve. Screening compounds were typically tested at concentration of 150 and 250 μg/mL. The dose response data for each compound and the different cell lines were obtained by nonlinear regression analysis using Prism 9 software (GraphPad, La Jolla, USA).

c1ccc2c(c1)cnn1nnnc21 [Compound 1, Tetrazolo[5,1-a]phthalazine]
collagen reduction percentage in comparison to the standard (100%) [1]: 57% | collagen reduction percentage in comparison to the standard (100%) [2]: 78%

COc1nn2c(C)nnc2c2ccccc12 [Compound 3, 6-Methoxy-3-methyl-1,2,4-triazolo[3,4-a]phthalazine]
collagen reduction percentage in comparison to the standard (100%) [1]: 82% | collagen reduction percentage in comparison to the standard (100%) [2]: 11%

[2H]C([2H])([2H])c1nnc2c3ccccc3cnn12 [Compound 7, 3-D3-Methyl-1,2,4-triazolo[3,4-a]phthalazine]
collagen reduction percentage in comparison to the standard (100%) [1]: 43% | collagen reduction percentage in comparison to the standard (100%) [2]: 9%

c1ccc2c(c1)cnn1cnnc21 [Compound 10, 1,2,4-Triazolo[3,4-a]phthalazine]
collagen reduction percentage in comparison to the standard (100%) [2]: 52%

Cc1nnc2c3cscc3cnn12 [Compound 16, 3-Methylthieno[3,4-d][1,2,4]triazolo[4,3-b]pyridazine]
collagen reduction percentage in comparison to the standard (100%) [1]: 79% | collagen reduction percentage in comparison to the standard (100%) [2]: 43%

c1nn2nnnc2c2cscc12 [Compound 17, Tetrazolo[1,5-b]thieno[3,4-d]pyridazine]
collagen reduction percentage in comparison to the standard (100%) [1]: 34% | collagen reduction percentage in comparison to the standard (100%) [2]: 16%

Cc1nnc2c3ccc(C(F)(F)F)cc3cnn12 [Compound 36, 3-Methyl-8-(trifluoromethyl)-[1,2,4]triazolo[3,4-a]phthalazine]
collagen reduction percentage in comparison to the standard (100%) [2]: 68%

CC(C)Oc1nn2nnnc2c2c(Cl)cccc12 [Compound 44, 10-chloro-6-isopropoxytetrazolo[5,1-a]phthalazine]
collagen reduction percentage in comparison to the standard (100%) [1]: 72%
